{"source": "paper PMC2074394", "about": "(British Journal of Cancer, 1996)", "key": {"P-gp": {"molecular_target": "P-gp (Homo sapiens, UniProt P08183)", "sequence (P08183 whole entry)": "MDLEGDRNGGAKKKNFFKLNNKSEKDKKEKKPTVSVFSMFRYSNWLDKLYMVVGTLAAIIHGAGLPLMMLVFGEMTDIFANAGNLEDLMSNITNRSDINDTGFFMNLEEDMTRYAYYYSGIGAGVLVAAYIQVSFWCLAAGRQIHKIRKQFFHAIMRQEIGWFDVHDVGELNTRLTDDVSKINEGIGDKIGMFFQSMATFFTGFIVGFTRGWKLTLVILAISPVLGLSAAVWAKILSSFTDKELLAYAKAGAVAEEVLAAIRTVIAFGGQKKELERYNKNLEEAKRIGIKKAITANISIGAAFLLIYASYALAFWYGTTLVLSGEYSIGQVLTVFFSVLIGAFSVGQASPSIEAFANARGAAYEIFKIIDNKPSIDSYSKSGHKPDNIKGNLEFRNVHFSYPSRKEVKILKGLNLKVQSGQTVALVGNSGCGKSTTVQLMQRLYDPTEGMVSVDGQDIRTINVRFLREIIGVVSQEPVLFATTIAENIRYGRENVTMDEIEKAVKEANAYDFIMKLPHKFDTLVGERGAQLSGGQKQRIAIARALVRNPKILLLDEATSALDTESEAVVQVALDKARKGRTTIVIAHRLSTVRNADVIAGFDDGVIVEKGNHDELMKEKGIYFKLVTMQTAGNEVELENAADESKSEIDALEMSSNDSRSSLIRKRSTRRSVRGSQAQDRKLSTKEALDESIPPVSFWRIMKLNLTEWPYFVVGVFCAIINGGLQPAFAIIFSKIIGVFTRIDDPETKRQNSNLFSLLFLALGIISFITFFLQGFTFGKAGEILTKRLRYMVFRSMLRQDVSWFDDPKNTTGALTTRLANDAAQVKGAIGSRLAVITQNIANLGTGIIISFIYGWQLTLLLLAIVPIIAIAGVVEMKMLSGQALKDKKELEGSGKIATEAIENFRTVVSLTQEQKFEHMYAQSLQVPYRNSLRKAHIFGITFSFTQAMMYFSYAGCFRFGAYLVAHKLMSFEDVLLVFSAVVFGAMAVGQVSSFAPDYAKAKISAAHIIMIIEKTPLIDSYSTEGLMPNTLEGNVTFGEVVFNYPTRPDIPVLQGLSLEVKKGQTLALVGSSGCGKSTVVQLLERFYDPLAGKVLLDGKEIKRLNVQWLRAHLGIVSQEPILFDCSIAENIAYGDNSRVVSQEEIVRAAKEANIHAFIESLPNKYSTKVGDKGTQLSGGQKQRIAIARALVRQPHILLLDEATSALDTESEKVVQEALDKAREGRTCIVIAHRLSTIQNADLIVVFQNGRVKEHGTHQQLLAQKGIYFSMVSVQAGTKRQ", "experiment": "Inhibition of binding of [3H]vinblastine to P-gp in MCF-7/Adr membranes", "text": "(§1) In the present study these five compounds are compared as modifiers of P-gp-mediated MDR. […] The overall objective of the work was to explore the mechanisms of cytostasis and resistance reversal caused by kinase inhibitors in a MDR cell line, with the ultimate aim to assess the potential use of such compounds in cancer therapy. […] [3H]Vinblastine (11 or 21 Ci mmol -') was obtained from Amersham (Amersham, UK). […] Cell culture medium and serum were purchased from Gibco BRL (Paisley, UK). Stock solutions of drugs were prepared in dimethyl sulphoxide (DMSO) and stored at -20?C. […] Cultures of both cell types contained L-glutamine (2 mM), penicillin (100 IU ml-') and streptomy- cin (100 ug ml-1). Cells were subcultured when they were confluent. […] After a 4 h attachment period compounds at various concentrations were added. […] Cells were trypsinised and counted using a model ZM Coulter counter. Incubations were conducted in duplicate. Growth inhibition was expressed as percentage of cell number in drug-free control incubates. […] IC50 values were derived from three separate experiments each performed in duplicate. The resistance ratios shown in Table I are the ratios of IC50 in MCF-7/Adr over IC50 in MCF-7, or IC50 in MCF-7/Adr in the absence of reserpine over IC50 in its presence. Flow cytometric analysis of R123 accumulation and efflux Cells were maintained in medium without phenol red but with FCS (10%) and gentamicin (50 µg ml-'). […] Cells were detached by treatment with trypsin-EDTA, washed with ice-cold PBS and resuspended in PBS (1 ml), to which propidium iodide (10 Mg) was added. […] Single- and multi-parameter data of forward angle scatter, side scatter, R123 fluorescence and propidium iodide fluorescence were collected for 104 cells. Fluorescence was measured on a four-decade log scale. The data were analysed using Lysis 2 software. Only R123 fluorescence of viable, propidium iodide-excluding cells was analysed. [/II] Vinblastine accumndation ini cells MCF-7 and MCF-7jAdr cells were grown to confluency in 12-well plates. […] The experiment was started by addition of [3H]vinblastine (1 -2 nM) to the incubate. […] Cells were incubated at 37'C for I h, after which the medium was aspirated and replaced with scintillant (1 ml). […] For each membrane preparation 109 cells were homogenised in 40 ml ice-cold Tris buffer [Tris-HC1 50 mM, phenylmethylsulphonyl fluoride (PMSF) 0.1 mM, pH 7.4] to which 0.1 mM EDTA had been added. The homogenate was centrifuged at 3500 g for 10 min; the supernatant was recentrifuged at 40 000 g for 20 min, the resultant pellet was resuspended in Tris buffer (10 ml). […] Filters were washed twice with 5 ml of ice-cold Tris-HCI containing magnesium chloride (both 20 mM). Assays were performed in duplicate. Filters were dried and retained radioactivity was quantitated by liquid scintillation counting."}, "MCF-7/Adr cells [1]": {"test_system": "MCF-7/Adr cells", "experiment": "[3H]Vinblastine accumulation in MCF-7/Adr cells", "type": "cell-based, human", "conditions": "300 nM, 1 h, 37 C; control cells 1280 d.p.m.", "text": "as §1, with “were” for “were washed twice with 5 ml of ice-cold Tris-HCI containing magnesium chloride (both 20 mM). Assays were performed in duplicate. Filters were”"}, "PKC": {"test_system": "PKC", "conditions": "cited from earlier work; for PKC inhibition, potency (Table III summary) / IC50: ref Courage et al., 1995; for IC50: read-out: IC50 for enzyme inhibition, PKC derived from the cytosol of MCF-7 cells"}, "MCF-7/Adr cells [2]": {"test_system": "MCF-7/Adr cells", "experiment": "Inhibition of growth of multidrug-resistant MCF-7/Adr cells, without or with reserpine", "type": "cell-based, human", "conditions": "for IC50: 4 days incubation, without reserpine; for Ratio (-reserpine / +reserpine): IC50 in MCF-7/Adr in the absence of reserpine over IC50 in its presence; for Ratio (MCF-7/Adr / MCF-7), resistance ratio: IC50 in MCF-7/Adr over IC50 in MCF-7"}, "MCF-7/Adr cells [3]": {"test_system": "MCF-7/Adr cells", "experiment": "Flow cytometric analysis of R123 accumulation and efflux", "type": "cell-based, human", "conditions": "for Increase over control levels in R123 accumulation: 20 min together with R123; for Effect on R123 accumulation or efflux: 640 nM", "text": "as §1"}, "MCF-7 cells": {"test_system": "MCF-7 cells", "experiment": "Inhibition of growth of MCF-7 wild-type cells (4 days, Coulter count)", "type": "cell-based, human", "conditions": "for IC50: 4 days incubation, mean of three experiments, read-out: IC50 MCF-7 (concentration which caused inhibition of cell growth by 50%)", "text": "as §1, with “were” for “were washed twice with 5 ml of ice-cold Tris-HCI containing magnesium chloride (both 20 mM). Assays were performed in duplicate. Filters were”"}, "MCF-7/Adr cells [4]": {"test_system": "MCF-7/Adr cells", "experiment": "Sensitisation of MCF-7/Adr cells against doxorubicin (preliminary study)", "type": "cell-based, human", "conditions": "unpublished preliminary study"}, "[5]": {"conditions": "read-out: Ki, inhibition of binding of [3H]vinblastine to P-gp, MCF-7/Adr membranes, 90 min, 23 C, mean, s.e.m."}, "[6]": {"conditions": "Homo sapiens, NCI/ADR-RES, 96 h"}}, "note": "“Also recorded” adds a separate entry of the source. Where two headings read alike, the source gives them in different places. Throughout, for MDR reversal by reserpine (Table III summary): key: +: potent effect; (+): weak effect; -: no effect. Throughout, for PKC inhibition, potency (Table III summary): key: +: potent effect; (+): weak effect; -: no effect. Throughout, for PKC inhibition, specificity (Table III summary): key: +: potent effect; (+): weak effect; -: no effect. Throughout, for Resistance in MCF-7/Adr cells (Table III summary): key: +: potent effect; (+): weak effect; -: no effect.", "data": [{"smiles": "CN[C@@H]1C[C@H]2O[C@@](C)([C@@H]1OC)n1c3ccccc3c3c4c(c5c6ccccc6n2c5c31)C(=O)N[C@H]4O", "note": "[UCN-01, 7-hydroxystaurosporine]", "values": [{"measurement": "Inhibition of [3H]vinblastine binding (Table III summary)", "setting": "P-gp", "result": "(+)"}, {"measurement": "Ki", "setting": "P-gp; [5]", "result": 293, "unit": "nM"}, {"measurement": "[3H]Vinblastine accumulation", "setting": "MCF-7/Adr cells [1]", "result": 2110, "unit": "d.p.m."}, {"measurement": "PKC inhibition, specificity (Table III summary)", "setting": "PKC", "result": "+"}, {"measurement": "PKC inhibition, potency (Table III summary)", "setting": "PKC", "result": "+"}, {"measurement": "MDR reversal by reserpine (Table III summary)", "setting": "MCF-7/Adr cells [2]", "result": "+"}, {"measurement": "Resistance in MCF-7/Adr cells (Table III summary)", "setting": "MCF-7/Adr cells [2]", "result": "+"}, {"measurement": "IC50", "setting": "MCF-7/Adr cells [2]", "result": 123, "unit": "nM"}, {"measurement": "Ratio (-reserpine / +reserpine)", "setting": "MCF-7/Adr cells [2]", "result": 3.5}, {"measurement": "Ratio (MCF-7/Adr / MCF-7), resistance ratio", "setting": "MCF-7/Adr cells [2]", "result": 7.0}, {"measurement": "Effect on R123 efflux (Table III summary)", "setting": "MCF-7/Adr cells [3]", "result": "(+)"}, {"measurement": "Concentration with significant effect on R123 accumulation", "setting": "MCF-7/Adr cells [3]; tested 10-640 nM", "result": 80, "unit": "nM"}, {"measurement": "Concentration with significant effect on dye efflux", "setting": "MCF-7/Adr cells [3]; tested 10-640 nM", "result": 320, "unit": "nM"}, {"measurement": "IC50", "setting": "MCF-7 cells", "result": 17.5, "unit": "nM"}]}, {"smiles": "CO[C@@H]1[C@H](N(C)C(=O)c2ccccc2)C[C@H]2O[C@]1(C)n1c3ccccc3c3c4c(c5c6ccccc6n2c5c31)C(=O)NC4", "note": "[CGP 41251, 4'-N-benzoyl staurosporine]", "values": [{"measurement": "Inhibition of [3H]vinblastine binding (Table III summary)", "setting": "P-gp", "result": "+"}, {"measurement": "Ki", "setting": "P-gp", "result": 32, "unit": "nM"}, {"measurement": "[3H]Vinblastine accumulation", "setting": "MCF-7/Adr cells [1]", "result": 3200, "unit": "d.p.m."}, {"measurement": "Increase of sensitivity of cells towards doxorubicin (factor)", "setting": "MCF-7/Adr cells [4]; 80 nM", "result": 2}, {"measurement": "Effect on R123 efflux (Table III summary)", "setting": "MCF-7/Adr cells [3]", "result": "+"}, {"measurement": "Increase over control levels in R123 retention (efflux)", "setting": "MCF-7/Adr cells [3]; 80 nM, 20 min after loading with and removal of the dye", "result": 150, "unit": "%"}, {"measurement": "Increase over control levels in R123 accumulation", "setting": "MCF-7/Adr cells [3]; 80 nM", "result": 47, "unit": "%"}]}, {"smiles": "CN(C)CCCn1cc(C2=C(c3c[nH]c4ccccc34)C(=O)NC2=O)c2ccccc21", "note": "[GF 109203X]", "values": [{"measurement": "Ki", "setting": "P-gp; [5]", "result": 780, "unit": "nM"}, {"measurement": "[3H]Vinblastine accumulation", "setting": "MCF-7/Adr cells [1]", "result": 1790, "unit": "d.p.m."}, {"measurement": "PKC inhibition, specificity (Table III summary)", "setting": "PKC", "result": "+"}, {"measurement": "PKC inhibition, potency (Table III summary)", "setting": "PKC", "result": "+"}, {"measurement": "IC50", "setting": "MCF-7/Adr cells [2]", "result": 8800, "unit": "nM"}, {"measurement": "Ratio (-reserpine / +reserpine)", "setting": "MCF-7/Adr cells [2]", "result": 1.5}, {"measurement": "Ratio (MCF-7/Adr / MCF-7), resistance ratio", "setting": "MCF-7/Adr cells [2]", "result": 1.2}, {"measurement": "Effect on R123 accumulation or efflux", "setting": "MCF-7/Adr cells [3]", "result": "inactive; also recorded: did not alter"}, {"measurement": "IC50", "setting": "MCF-7 cells", "result": 7300, "unit": "nM"}]}, {"smiles": "CN[C@@H]1C[C@H]2O[C@@](C)([C@@H]1OC)n1c3ccccc3c3c4c(c5c6ccccc6n2c5c31)C(=O)NC4", "note": "[staurosporine]", "values": [{"measurement": "Inhibition of [3H]vinblastine binding (Table III summary)", "setting": "P-gp", "result": "(+)"}, {"measurement": "Ki", "setting": "P-gp", "result": 145, "unit": "nM"}, {"measurement": "IC50", "setting": "PKC", "result": 16, "unit": "nM"}, {"measurement": "IC50", "setting": "MCF-7/Adr cells [2]; [6]", "result": 6.5, "unit": "nM"}, {"measurement": "Effect on R123 efflux (Table III summary)", "setting": "MCF-7/Adr cells [3]", "result": "+"}, {"measurement": "Increase over control levels in R123 accumulation", "setting": "MCF-7/Adr cells [3]; 80 nM", "result": 40, "unit": "%"}, {"measurement": "Increase over control levels in R123 retention (efflux)", "setting": "MCF-7/Adr cells [3]; 20 min, 0.08 µM", "result": 75, "unit": "%"}]}, {"smiles": "COC(=O)[C@H]1[C@H]2C[C@@H]3c4[nH]c5cc(OC)ccc5c4CCN3C[C@H]2C[C@@H](OC(=O)c2cc(OC)c(OC)c(OC)c2)[C@@H]1OC", "note": "[reserpine]", "values": [{"measurement": "Effect on proliferation", "setting": "MCF-7/Adr cells [2]; reserpine 5 μM", "result": "did not interfere with proliferation"}, {"measurement": "Increase of sensitivity towards doxorubicin", "setting": "MCF-7/Adr cells [2]; reserpine 5 μM, preliminary experiments", "result": 14.3, "unit": "fold"}]}, {"smiles": "Cn1cc(C2=C(c3cn(CCCSC(=N)N)c4ccccc34)C(=O)NC2=O)c2ccccc21", "note": "[RO 31 8220]", "values": [{"measurement": "Inhibition of [3H]vinblastine binding (Table III summary)", "setting": "P-gp", "result": "(+)"}, {"measurement": "Ki", "setting": "P-gp; [5]", "result": 210, "unit": "nM"}, {"measurement": "[3H]Vinblastine accumulation", "setting": "MCF-7/Adr cells [1]", "result": "no effect"}, {"measurement": "PKC inhibition, specificity (Table III summary)", "setting": "PKC", "result": "+"}, {"measurement": "PKC inhibition, potency (Table III summary)", "setting": "PKC", "result": "+"}, {"measurement": "IC50", "setting": "PKC", "result": 48, "unit": "nM"}, {"measurement": "MDR reversal by reserpine (Table III summary)", "setting": "MCF-7/Adr cells [2]", "result": "+"}, {"measurement": "Resistance in MCF-7/Adr cells (Table III summary)", "setting": "MCF-7/Adr cells [2]", "result": "+"}, {"measurement": "IC50", "setting": "MCF-7/Adr cells [2]", "result": 11300, "unit": "nM"}, {"measurement": "Ratio (-reserpine / +reserpine)", "setting": "MCF-7/Adr cells [2]", "result": 6.4}, {"measurement": "Ratio (MCF-7/Adr / MCF-7), resistance ratio", "setting": "MCF-7/Adr cells [2]", "result": 12.6}, {"measurement": "Effect on sensitivity of cells towards doxorubicin", "setting": "MCF-7/Adr cells [4]; 2 μM", "result": "no effect"}, {"measurement": "Effect on R123 accumulation or efflux", "setting": "MCF-7/Adr cells [3]", "result": "inactive; also recorded: did not alter"}, {"measurement": "IC50", "setting": "MCF-7 cells", "result": 897, "unit": "nM"}, {"measurement": "Effect of reserpine on sensitivity of wild-type MCF-7 cells", "setting": "MCF-7 cells; result not shown", "result": "did not affect"}]}, {"smiles": "COc1cccc2c1C(=O)c1c(O)c3c(c(O)c1C2=O)C[C@@](O)(C(=O)CO)C[C@@H]3O[C@H]1C[C@H](N)[C@H](O)[C@H](C)O1", "note": "[doxorubicin]", "values": [{"measurement": "IC50", "setting": "MCF-7/Adr cells [2]; [6]", "result": 1600, "unit": "nM"}, {"measurement": "Ratio (-reserpine / +reserpine)", "setting": "MCF-7/Adr cells [2]", "result": 16}]}]}
